Tested on: 5-α-reductase
Assay: interruption of 5-α-reductase activity by copper containing peptides
Type: biochemical
Settings: stated in words only; said to act by preventing binding of testosterone to the active site; no method or data given

| interruption of the activity of 5-α-reductase | Substance |
| --- | --- |
| interrupt 5-α-reductase | His-Ala-His-Cu(II) |
| interrupt 5-α-reductase | Cu(II)-His-Val-His |
| interrupt the activity of 5-α-reductase | Gly-His-Lys-Cu(II) |
